Measurements as given in patent US20050197338A1, “Substituted pyrazole urea compounds for the treatment of inflammation” (priority 2003, published 2005).

Biological target: T1, human IKK-2 (rhIKK-2 homodimer) (Homo sapiens, UniProt O14920)
T1 construct: FLAG (DYKDDDDKD) (C); made in house; host or cells: insect cells (baculovirus, pFastBac)
T1 sequence (O14920 1-756): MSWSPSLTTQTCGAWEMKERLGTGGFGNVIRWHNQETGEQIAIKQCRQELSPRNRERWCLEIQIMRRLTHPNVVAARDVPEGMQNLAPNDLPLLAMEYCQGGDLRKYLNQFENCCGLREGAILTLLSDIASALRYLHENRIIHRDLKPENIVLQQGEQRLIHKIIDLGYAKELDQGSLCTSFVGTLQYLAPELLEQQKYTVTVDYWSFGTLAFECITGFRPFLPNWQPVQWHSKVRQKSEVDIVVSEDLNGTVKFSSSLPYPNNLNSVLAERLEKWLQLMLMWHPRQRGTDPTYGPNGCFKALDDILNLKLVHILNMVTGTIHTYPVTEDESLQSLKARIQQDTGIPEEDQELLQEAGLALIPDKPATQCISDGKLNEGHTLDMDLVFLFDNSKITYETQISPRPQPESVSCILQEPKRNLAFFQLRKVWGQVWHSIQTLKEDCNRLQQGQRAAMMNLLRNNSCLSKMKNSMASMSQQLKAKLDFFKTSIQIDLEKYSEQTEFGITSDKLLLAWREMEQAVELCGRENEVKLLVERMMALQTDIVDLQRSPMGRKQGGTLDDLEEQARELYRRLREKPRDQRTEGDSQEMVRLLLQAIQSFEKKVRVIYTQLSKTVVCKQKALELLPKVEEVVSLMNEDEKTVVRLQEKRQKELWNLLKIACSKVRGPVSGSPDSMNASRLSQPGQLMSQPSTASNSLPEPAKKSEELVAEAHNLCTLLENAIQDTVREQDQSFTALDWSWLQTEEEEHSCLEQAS
Experiment: IKK-2 Resin Enzyme Assay (Human IKK-2 Enzyme Assay)
Assay type: biochemical
Conditions: human IKK-2, resin enzyme assay; read-out: IC50 (μM) hIKK-2
Method in brief: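 C-terminally FLAG-tagged human IKK-2 homodimer, baculovirus-expressed in insect cells and anti-FLAG purified. Reaction mix: 5 μM biotinylated IκBα peptide (Ser32/Ser36 region), 1 μM ATP with [γ-33P]ATP, 2 mM MgCl2, 2 mM MnCl2, 10 mM NaF, 1 mM DTT, 25 mM HEPES pH 7.6. Incubated 30 min at 25 °C; IC50 derived.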

Going from `NC(=O)Nc1cn(-c2cccc(-c3cccc4ncccc34)c2)nc1C(N)=O` [Example 60, 4-[(aminocarbonyl)amino]-1-(3-quinolin-5-ylphenyl)-1H-pyrazole-3-carboxamide] to `NC(=O)Nc1cn(-c2cccc(-c3ccncc3)c2)nc1C(N)=O` [Example 45, 4-[(aminocarbonyl)amino]-1-(3-pyridin-4-ylphenyl)-1H-pyrazole-3-carboxamide], the IC50 falls from 3.75 µM to 0.31 µM (12-fold). The second is the more potent here.

Compared with `CCCNC(=O)c1ccc(-c2cccc(-n3cc(NC(N)=O)c(C(N)=O)n3)c2)cc1` [Example 75, 4-[(aminocarbonyl)amino]-1-{4′-[(propylamino)carbonyl]-1,1′-biphenyl-3-yl}-1H-pyrazole-3-carboxamide], `CC(C)Cc1ccc(-c2cccc(-n3cc(NC(N)=O)c(C(N)=O)n3)c2)cc1` [Example 363, 4-[(aminocarbonyl)amino]-1-(4′-isobutyl-1,1′-biphenyl-3-yl)-1H-pyrazole-3-carboxamide] is higher in IC50: 0.48 µM for the first, over 20 µM for the second. The first is the more potent here.

`NC(=O)Nc1cn(-c2cccc(-c3cn[nH]c3)c2)nc1C(N)=O` [Example 57, 4-[(aminocarbonyl)amino]-1-[3-(1H-pyrazol-4-yl)phenyl]-1H-pyrazole-3-carboxamide] and `NC(=O)Nc1cn(-c2cccc(-c3ccnc(Cl)c3)c2)nc1C(N)=O` [Example 13, 4-[(aminocarbonyl)amino]-1-[3-(2-chloropyridin-4-yl)phenyl]-1H-pyrazole-3-carboxamide] are within 1.5-fold of each other in IC50: 0.29 µM for the first, 0.38 µM for the second.

Compared with `COc1cccc(-c2cccc(-n3cc(NC(N)=O)c(C(N)=O)n3)c2)c1` [Example 343, 4-[(aminocarbonyl)amino]-1-(3′-methoxy-1,1′-biphenyl-3-yl)-1H-pyrazole-3-carboxamide], `N#Cc1cccc(-c2cccc(-n3cc(NC(N)=O)c(C(N)=O)n3)c2)c1` [Example 341, 4-[(aminocarbonyl)amino]-1-(3′-cyano-1,1′-biphenyl-3-yl)-1H-pyrazole-3-carboxamide] is 5.3-fold lower in IC50: 5.18 µM for the first, 0.984 µM for the second. The second is the more potent here.

Going from `NC(=O)Nc1cn(-c2ccc(-c3ccccc3F)cc2)nc1C(N)=O` [Example 30, 4-[(aminocarbonyl)amino]-1-(2′-fluoro-1,1′-biphenyl-4-yl)-1H-pyrazole-3-carboxamide] to `COc1ccc(Cl)cc1-c1ccc(-n2cc(NC(N)=O)c(C(N)=O)n2)cc1` [Example 129, 4-[(aminocarbonyl)amino]-1-(5′-chloro-2′-methoxy-1,1′-biphenyl-4-yl)-1H-pyrazole-3-carboxamide], the IC50 falls from 3 µM to 1.82 µM (1.6-fold).

`NC(=O)Nc1cn(-c2ccc(-c3ccc(C(=O)NCc4ccc(F)cc4)c(F)c3)cc2)nc1C(N)=O` [Example 155, 4-[(aminocarbonyl)amino]-1-(3′-fluoro-4′-{[(4-fluorobenzyl)amino]carbonyl}-1,1′-biphenyl-4-yl)-1H-pyrazole-3-carboxamide] and `COc1ccc(CNC(=O)c2ccc(-c3ccc(-n4cc(NC(N)=O)c(C(N)=O)n4)cc3)cc2F)cc1` [Example 150, 4-[(aminocarbonyl)amino]-1-(3′-fluoro-4′-{[(4-methoxybenzyl)amino]carbonyl}-1,1′-biphenyl-4-yl)-1H-pyrazole-3-carboxamide] are within 1.5-fold of each other in IC50: 0.45 µM for the first, 0.63 µM for the second.

Going from `COc1ccc(CNC(=O)c2nn(-c3cccc(O)c3)cc2NC(N)=O)cc1` [Example 299, 1-(3-hydroxy-phenyl)-4-ureido-1H-pyrazole-3-carboxylic acid 4-methoxy-benzylamide] to `NC(=O)Nc1cn(-c2ccc(-c3cccc(O)c3)c(F)c2)nc1C(N)=O` [Example 226, 4-[(aminocarbonyl)amino]-1-(2-fluoro-3′-hydroxy-1,1′-biphenyl-4-yl)-1H-pyrazole-3-carboxamide], the IC50 rises from 0.595 µM to 1.06 µM (1.8-fold).

Compared with `CN(C)C(=O)COc1cccc(-c2ccc(-n3cc(NC(N)=O)c(C(N)=O)n3)cc2)c1` [Example 181, 4-[(aminocarbonyl)amino]-1-{3′-[2-(dimethylamino)-2-oxoethoxy]-1,1′-biphenyl-4-yl}-1H-pyrazole-3-carboxamide], `NC(=O)CCc1cccc(-c2ccc(-n3cc(NC(N)=O)c(C(N)=O)n3)cc2)c1` [Example 338, 4-[(aminocarbonyl)amino]-1-[3′-(3-amino-3-oxopropyl)-1,1′-biphenyl-4-yl]-1H-pyrazole-3-carboxamide] is 5.9-fold higher in IC50: 0.105 µM for the first, 0.62 µM for the second.

First: NC(=O)Nc1cn(-c2ccc(-c3cc(F)ccc3OCC(=O)N3CCOCC3)cc2)nc1C(N)=O [Example 161, 4-[(aminocarbonyl)amino]-1-[5′-fluoro-2′-(2-morpholin-4-yl-2-oxoethoxy)-1,1′-biphenyl-4-yl]-1H-pyrazole-3-carboxamide]
Second: NC(=O)Nc1cn(-c2ccc(-c3ccc(C(N)=O)c(F)c3)cc2)nc1C(N)=O [Example 183, 4-[(aminocarbonyl)amino]-1-[4′-(aminocarbonyl)-3′-fluoro-1,1′-biphenyl-4-yl]-1H-pyrazole-3-carboxamide]
The IC50 of the first is 10-fold higher: 1.36 µM for the first, 0.13 µM for the second. The second is the more potent here.

First: NC(=O)Nc1cn(-c2cccc(-c3ccc(-c4ccccc4)cc3)c2)nc1C(N)=O [Example 373, 4-[(aminocarbonyl)amino]-1-(1,1′:4′,1″-terphenyl-3-yl)-1H-pyrazole-3-carboxamide]
Second: NC(=O)Nc1cn(-c2ccc(-c3ccc(C(=O)O)cc3)cc2)nc1C(N)=O [Example 142, 4′-{3-(aminocarbonyl)-4-[(aminocarbonyl)amino]-1H-pyrazol-1-yl}-1,1′-biphenyl-4-carboxylic acid]
The IC50 of the first is higher: over 20 µM for the first, 0.17 µM for the second.

First: NC(=O)NC(=O)Nc1cn(-c2ccc(Br)c(C(F)(F)F)c2)nc1C(N)=O [Example 2, 4-({[(aminocarbonyl)amino]carbonyl}amino)-1-[4-bromo-3-(trifluoromethyl)phenyl]-1H-pyrazole-3-carboxamide]
Second: NC(=O)Nc1cn(-c2ccc(-c3cccc(O)c3)c(C(F)(F)F)c2)nc1C(N)=O [Example 233, 4-[(aminocarbonyl)amino]-1-[3′-hydroxy-2-(trifluoromethyl)-1,1′-biphenyl-4-yl]-1H-pyrazole-3-carboxamide]
The IC50 of the first is 29-fold higher: 10.7 µM for the first, 0.375 µM for the second. The second is the more potent here.

First: NC(=O)Nc1cn(-c2ccc(Sc3ccc(F)cc3)c(Cl)c2)nc1C(N)=O [Example 221, 4-[(aminocarbonyl)amino]-1-{3-chloro-4-[(4-fluorophenyl)thio]phenyl}-1H-pyrazole-3-carboxamide]
Second: Cc1cc(F)ccc1-c1cccc(-n2cc(NC(N)=O)c(C(N)=O)n2)c1 [Example 345, 4-[(aminocarbonyl)amino]-1-(4′-fluoro-2′-methyl-1,1′-biphenyl-3-yl)-1H-pyrazole-3-carboxamide]
The IC50 of the first is lower: 2.6 µM for the first, over 20 µM for the second. The first is the more potent here.

Going from `CNC(=O)c1ccc(-c2ccc(-n3cc(NC(N)=O)c(C(N)=O)n3)cc2)cc1` [Example 145, 4-[(aminocarbonyl)amino]-1-{4′-[(methylamino)carbonyl]-1,1′-biphenyl-4-yl}-1H-pyrazole-3-carboxamide] to `NC(=O)Nc1cn(-c2ccc(-c3ccc(C(=O)Nc4ccccn4)cc3)cc2)nc1C(N)=O` [Example 33, 4-[(aminocarbonyl)amino]-1-{4′-[(pyridin-2-ylamino)carbonyl]-1,1′-biphenyl-4-yl}-1H-pyrazole-3-carboxamide], the IC50 rises from 0.24 µM to 0.89 µM (3.7-fold). The first is the more potent here.

Going from `NC(=O)Nc1nn(-c2ccc(-c3cccc(F)c3F)cc2)cc1C(N)=O` [Example 112] to `CNC(=O)CCc1cccc(-c2ccc(-n3cc(NC(N)=O)c(C(N)=O)n3)cc2)c1` [Example 381, 4-[(aminocarbonyl)amino]-1-{3′-[3-(methylamino)-3-oxopropyl]-1,1′-biphenyl-4-yl}-1H-pyrazole-3-carboxamide], the IC50 falls from 1.99 µM to 0.42 µM (4.7-fold).

Compared with `COc1ccc(Cl)cc1-c1cccc(-n2cc(NC(N)=O)c(C(N)=O)n2)c1` [Example 365, 4-[(aminocarbonyl)amino]-1-(5′-chloro-2′-methoxy-1,1′-biphenyl-3-yl)-1H-pyrazole-3-carboxamide], `NC(=O)Nc1cn(-c2cccc(-c3cccc(CO)c3)c2)nc1C(N)=O` [Example 49, 4-[(aminocarbonyl)amino]-1-[3′-(hydroxymethyl)-1,1′-biphenyl-3-yl]-1H-pyrazole-3-carboxamide] is 4.7-fold lower in IC50: 11.6 µM for the first, 2.48 µM for the second. The second is the more potent here.

Compared with `Cc1cc(-n2cc(NC(N)=O)c(C(N)=O)n2)ccc1Cl` [Example 302, 4-[(aminocarbonyl)amino]-1-(4-chloro-3-methylphenyl)-1H-pyrazole-3-carboxamide], `Cc1cc(-n2cc(NC(N)=O)c(C(N)=O)n2)ccc1-c1ccc(F)cc1OCC(N)=O` [Example 296, 1-(2′-carbamoylmethoxy-4′-fluoro-2-methyl-biphenyl-4-yl)-4-ureido-1H-pyrazole-3-carboxylic acid amide] is 2.9-fold higher in IC50: 0.229 µM for the first, 0.656 µM for the second.

Compound `NC(=O)Nc1cn(-c2cccc(/C=C/c3ccccc3)c2)nc1C(N)=O` [Example 67, 4-[(aminocarbonyl)amino]-1-{3-[(E)-2-phenylvinyl]phenyl}-1H-pyrazole-3-carboxamide] has an IC50 of 5.24 µM.
